# Source: article PMC11876601 (Molecular Systems Biology, 2025)
# Like-named read-outs stand apart in the source and are kept apart here.
# Columns and labels:
# Assay in all cases: cells
# [1] = test system: MiaPaCa-2; design: Viability of PDAC cell lines, ATPlite luminescence, 11-dose single-agent curve fit; conditions: Homo sapiens, MIA PaCa-2, 72 h, read-out: EC50 [nM]
# In short: (§1)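 screening used cells plated at 1000 to 5000 per well one day before treatment. Final DMSO was 0.2%. Each plate held untreated negative-control wells and 5 µM staurosporine positive-control wells.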
# [2] = test system: PaTu-8988-T; design: Viability of PDAC cell lines, ATPlite luminescence, 11-dose single-agent curve fit; conditions: Homo sapiens, PaTu 8988t, 72 h, read-out: EC50 [nM]
# In short: as §1
# [3] = test system: AsPC-1; design: Viability of PDAC cell lines, ATPlite luminescence, 11-dose single-agent curve fit; conditions: Homo sapiens, ASPC1, 72 h, read-out: EC50 [nM]
# In short: as §1
# [4] = test system: Suit2-07; design: Viability of PDAC cell lines, ATPlite luminescence, 11-dose single-agent curve fit; conditions: 72 h, read-out: EC50 [nM]
# In short: as §1
# [5] = test system: Dan-G; design: Viability of PDAC cell lines, ATPlite luminescence, 11-dose single-agent curve fit; conditions: 72 h, read-out: EC50 [nM]
# In short: as §1
# [6] = test system: FAMPAC; design: Viability of PDAC cell lines, ATPlite luminescence, 11-dose single-agent curve fit; conditions: 72 h, read-out: EC50 [nM]
# In short: as §1
# [7] = test system: Capan-1; design: Viability of PDAC cell lines, ATPlite luminescence, 11-dose single-agent curve fit; conditions: Homo sapiens, CAPAN-1, 72 h, read-out: EC50 [nM]
# In short: as §1
# [8] = test system: BxPC-3; design: Viability of PDAC cell lines, ATPlite luminescence, 11-dose single-agent curve fit; conditions: Homo sapiens, BXPC-3, 72 h, read-out: EC50 [nM]
# In short: as §1
# [9] = test system: Colo-357; design: Viability of PDAC cell lines, ATPlite luminescence, 11-dose single-agent curve fit; conditions: Homo sapiens, COLO357, 72 h, read-out: EC50 [nM]
# In short: as §1
# [10] = test system: PSN-1; design: Viability of PDAC cell lines, ATPlite luminescence, 11-dose single-agent curve fit; conditions: Homo sapiens, PSN1, 72 h, read-out: EC50 [nM]
# In short: as §1
# [11] = test system: PANC-1; design: Viability of PDAC cell lines, ATPlite luminescence, 11-dose single-agent curve fit; conditions: Homo sapiens, PANC-1, 72 h, read-out: EC50 [nM]
# In short: as §1
# [12] = test system: HuP-T4; design: Viability of PDAC cell lines, ATPlite luminescence, 11-dose single-agent curve fit; conditions: Homo sapiens, HuP-T4, 72 h, read-out: EC50 [nM]
# In short: as §1
# [13] = test system: HPDE; design: ATPlite luminescence viability of PDAC cell lines, 11-dose single-agent curves, 4-parameter fit; conditions: HPDE, 72 h, read-out: EC50 [nM]
# In short: (§2)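 Drug-combination screening used cells plated at 1000 to 5000 per well one day before treatment. Final DMSO was 0.2%. Each plate held untreated negative-control wells and 5 µM staurosporine positive-control wells.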
# [14] = test system: BxPC-3; design: ATPlite luminescence viability of PDAC cell lines, 11-dose single-agent curves, 4-parameter fit; conditions: Homo sapiens, BXPC-3, 72 h, read-out: EC50 [nM]
# In short: as §2
# [15] = test system: Dan-G; design: ATPlite luminescence viability of PDAC cell lines, 11-dose single-agent curves, 4-parameter fit; conditions: 72 h, read-out: EC50 [nM]
# In short: as §2
# [16] = test system: FAMPAC; design: ATPlite luminescence viability of PDAC cell lines, 11-dose single-agent curves, 4-parameter fit; conditions: 72 h, read-out: EC50 [nM]
# In short: as §2
# [17] = test system: Colo-357; design: ATPlite luminescence viability of PDAC cell lines, 11-dose single-agent curves, 4-parameter fit; conditions: Homo sapiens, COLO357, 72 h, read-out: EC50 [nM]
# In short: as §2
# [18] = test system: MiaPaCa-2; design: ATPlite luminescence viability of PDAC cell lines, 11-dose single-agent curves, 4-parameter fit; conditions: Homo sapiens, MIA PaCa-2, 72 h, read-out: EC50 [nM]
# In short: as §2
# [19] = test system: PaTu-8988-T; design: ATPlite luminescence viability of PDAC cell lines, 11-dose single-agent curves, 4-parameter fit; conditions: Homo sapiens, PaTu 8988t, 72 h, read-out: EC50 [nM]
# In short: as §2
# [20] = test system: AsPC-1; design: ATPlite luminescence viability of PDAC cell lines, 11-dose single-agent curves, 4-parameter fit; conditions: Homo sapiens, ASPC1, 72 h, read-out: EC50 [nM]
# In short: as §2
# [21] = test system: Suit2-07; design: ATPlite luminescence viability of PDAC cell lines, 11-dose single-agent curves, 4-parameter fit; conditions: 72 h, read-out: EC50 [nM]
# In short: as §2
# [22] = test system: PSN-1; design: ATPlite luminescence viability of PDAC cell lines, 11-dose single-agent curves, 4-parameter fit; conditions: Homo sapiens, PSN1, 72 h, read-out: EC50 [nM]
# In short: as §2
SMILES,EC50 [1],EC50 [3],EC50 [8],EC50 [9],EC50 [11],EC50 [14],EC50 [17],EC50 [18],EC50 [20],EC50 [2],EC50 [4],EC50 [6],EC50 [7],EC50 [10],EC50 [12],EC50 [13],EC50 [15],EC50 [16],EC50 [21],also measured
CNC(=O)c1cccc2cc(Oc3ccnc4cc(OCC5(N)CC5)c(OC)cc34)ccc12 [Lucitanib],> 10000 nM,8920 nM,9500 nM,> 10000 nM,2920 nM,–,–,–,–,5920 nM,5330 nM,> 10000 nM,> 10000 nM,8180 nM,> 10000 nM,9210 nM,–,–,–,EC50 [5]: 665 nM
C=CC(=O)Nc1cccc(Oc2nc(Nc3ccc(N4CCN(C)CC4)cc3)nc3ccsc23)c1 [Olmutinib],–,–,–,8230 nM,> 10000 nM,5220 nM,–,5290 nM,6710 nM,–,–,–,> 10000 nM,–,2230 nM,3900 nM,> 10000 nM,> 10000 nM,7100 nM,EC50 [19]: > 10000 nM; EC50 [22]: 7020 nM
C[C@]1(O)C[C@@H](c2nc(-c3ccc4ccc(-c5ccccc5)nc4c3)c3c(N)nccn32)C1 [Linsitinib],–,–,> 10000 nM,4180 nM,> 10000 nM,–,–,416 nM,1540 nM,6100 nM,–,4850 nM,1750 nM,7340 nM,21.6 nM,7060 nM,–,–,239 nM,EC50 [5]: 3840 nM
C=CC(=O)N1CCC[C@@H](n2nc(-c3ccc(Oc4ccccc4)cc3)c3c(N)ncnc32)C1 [Ibrutinib],1840 nM,46.1 nM,128 nM,373 nM,1170 nM,–,–,–,–,166 nM,396 nM,28.3 nM,317 nM,1100 nM,54.2 nM,521 nM,56.6 nM,–,–,–
C#Cc1cccc(Nc2ncnc3cc4c(cc23)OCCOCCOCCO4)c1 [Icotinib],1760 nM,416 nM,5260 nM,–,716 nM,–,2260 nM,–,–,91.9 nM,101 nM,6990 nM,1900 nM,42 nM,0.21 nM,1000 nM,1530 nM,–,–,–
COc1cc2ncnc(Nc3cccc(Cl)c3F)c2cc1OC(=O)N1CCN(C)C[C@H]1C [AZD3759],2570 nM,515 nM,847 nM,–,8860 nM,–,464 nM,–,–,1690 nM,1330 nM,2880 nM,1200 nM,2560 nM,2590 nM,483 nM,445 nM,–,–,–
CS(=O)(=O)CCNCc1ccc(-c2ccc3ncnc(Nc4ccc(OCc5cccc(F)c5)c(Cl)c4)c3c2)o1 [Lapatinib],> 10000 nM,> 10000 nM,8320 nM,–,> 10000 nM,–,815 nM,–,–,> 10000 nM,7910 nM,> 10000 nM,> 10000 nM,> 10000 nM,> 10000 nM,> 10000 nM,3780 nM,–,–,–

# Now from value to compound, other results behind:
EC50 [1],EC50 [3],EC50 [8],EC50 [9],EC50 [11],EC50 [14],EC50 [17],EC50 [18],EC50 [20],SMILES,EC50 [2],EC50 [4],EC50 [6],EC50 [7],EC50 [10],EC50 [12],EC50 [13],EC50 [15],EC50 [16],EC50 [21],also measured
9130 nM,300 nM,–,2200 nM,3410 nM,> 10000 nM,–,–,–,C=CC(=O)N1CCC([C@@H]2CCNc3c(C(N)=O)c(-c4ccc(Oc5ccccc5)cc4)nn32)CC1 [Zanubrutinib],547 nM,7180 nM,75.9 nM,2290 nM,132 nM,796 nM,3010 nM,–,–,–,EC50 [5]: 578 nM
4440 nM,390 nM,–,–,> 10000 nM,1760 nM,676 nM,–,–,C[C@@H]1COC(Nc2ccc3ncnc(Nc4ccc(OCc5nccs5)c(Cl)c4)c3c2)=N1 [Varlitinib],861 nM,2070 nM,–,724 nM,2940 nM,40.5 nM,1930 nM,630 nM,> 10000 nM,–,–
–,–,–,611 nM,> 10000 nM,467 nM,–,589 nM,1270 nM,CCn1c(=O)c(-c2cc(NC(=O)Nc3ccccc3)c(F)cc2Br)cc2cnc(NC)cc21 [Ripretinib],–,–,–,758 nM,–,592 nM,901 nM,501 nM,912 nM,431 nM,EC50 [19]: 717 nM; EC50 [22]: 582 nM
–,–,–,10100 nM,> 10000 nM,2840 nM,–,2340 nM,> 10000 nM,CCN(CC)CCNC(=O)c1c(C)[nH]c(/C=C2\C(=O)Nc3ccc(F)cc32)c1C [Sunitinib],–,–,–,> 10000 nM,–,114 nM,5050 nM,4120 nM,5670 nM,3180 nM,EC50 [19]: 2190 nM; EC50 [22]: 5160 nM
